≈ marks a conversion by molar mass, not a printed value. Read-outs that look alike come from different tables or passages of the source. Values belong to the compound of their own block, whether it stands above or below them. Bridge positions count the residues as written; N and C are the ends. Square brackets hold non-standard residues; d marks the D form. Peptide text beside a SMILES is read from it. * marks the point of attachment. d(aThr) = C[C@@H](O)[C@@H](N)C(=O)O; Palmitoyl = CCCCCCCCCCCCCCCC(=O)*; dPip = O=C(O)[C@H]1CCCCN1; hSer = N[C@@H](CCO)C(=O)O; Dap = NC[C@H](N)C(=O)O
Legend:
Bacillus subtilis [1] = assay: Growth inhibitory zone assay; type: cell-based; conditions: mixed with B1 at 50 mM each, 12 hours, room temperature
Method: The antimicrobial activities of our peptide (B1) in combination with various boron species were tested by the growth inhibitory zone assay (FIG. 26). B1 was mixed with various boron species at 50 mM each (final concentration). These mixtures were then spotted on a lawn of Bacillus subtilis. After 12 hours of incubation at room temperature, combinations effective at inhibiting bacterial growth would appear as a circular zone.

Bacillus subtilis [2] = conditions: for antimicrobial activity: absence of PBA; for PBA dependence of bacterial growth suppression: with vs without PBA; for MIC: no PBA
Method: We then investigated the boron dependence of B1 by determining the MIC of B1 across […] of PBA concentrations (0.5 μg/mL to 100 μg/mL, FIG. 4B).

Staphylococcus species = assay: Activity spectrum MIC; type: cell-based; conditions: PBA 50 μg/mL
B. cereus = assay: Activity spectrum MIC; type: cell-based; conditions: PBA 50 μg/mL
Pseudomonas aeruginosa = assay: Activity spectrum MIC; type: cell-based; conditions: PBA 50 μg/mL
[3] = tested on: vancomycin-resistant strains (VRE); assay: Activity spectrum MIC; type: cell-based, Enterococcus; conditions: PBA 50 μg/mL
E. faecalis = assay: Activity spectrum MIC; type: cell-based; conditions: PBA 50 μg/mL
[4] = tested on: methicillin-resistant strains (MRSA); assay: Activity spectrum MIC; type: cell-based, Staphylococcus; conditions: PBA 50 μg/mL
Escherichia coli = assay: Activity spectrum MIC; type: cell-based; conditions: PBA 50 μg/mL
HEK293T cells = assay: cells; type: cell-based; conditions: 24 h
Method: HEK293T cells were cultured in Dulbecco's Modified Eagle's Medium supplemented with 10% fetal bovine serum and 1% Antibiotic antimycotic at 37° C. under humidified atmosphere and 5% CO2. Cytotoxicity assays began by seeding 2×10^4 HEK293T cells per well in a 96-well plate. Cells were given 20 to 24 h to adhere, washed with fresh medium, and then a 2-fold dilution series of the compounds of interest were added. The highest concentration tested for S1, B1, and PBA were 128, 128, and 1,280 μg/mL, respectively; for the B1-plus-PBA series, the PBA concentration was held constant at 5 μg/mL while the B1 concentration varied. After incubation for 24 h, the medium was discarded, the cells rinsed with PBS buffer, and 100 μL of 0.5 mg/mL MTT in […] was added to each well. The plate was incubated for 2 h before discarding the MTT solution. The cells were wash with PBS, and then the resulting purple crystals were dissolved by DMSO (100 μL per well). Absorbance at 570 nm for each well was recorded, and cell viability (%) was calculated as the ratio of the absorbance the compound-treated well vs. the no-compound well. This assay was performed in triplicate.

Streptococcus species = assay: Activity spectrum MIC; type: cell-based; conditions: PBA 50 μg/mL
[5] = 31P NMR monitoring of complex formation; type: binding; conditions: B1/PBA/C10P 1:2:1, 10% D2O
Method: NMR experiments were conducted on a Bruker AVIII 400 (400 MHZ) spectrometer. Chemical shifts (δ) are relative to tetramethylsilane, boric acid, and phosphoric acid for ^1H, ^11B, and ^31P spectra, respectively. The ^11B spectrum of PBA (20 μL, 10.0 mg/mL) in 10% D2O (550 μL) was first obtained. Next, C10P (17 μL, 16 mg/mL) was added directly into the NMR tube, and both the ^11B and ^31P spectra were obtained. B1 (1.2 mg, powder) was then added, followed spectra acquisition. Finally, CaCl2) was added to the solution in the NMR tube, so that the final calcium concentration is ˜5 mM. Note that the ^31P spectrum of C10P alone was collected separately.
Mass spectrometry (MS) and nuclear magnetic resonance (NMR) offered additional evidence of complex formation at the molecular level. High-resolution native electrospray ionization mass spectrometry (HR-NESI-MS) is commonly used to study noncovalent interactions.^[15] Using HR-NESI-MS, we observed the expected m/z for binary, ternary, and quaternary complexes at both the positive and negative modes (FIGS. 5B and 5C, FIGS. 15-18 and FIGS. 23-24). We then performed phosphorous (^31P) and boron (^11B) NMR to monitor the complex formation process. […] When B1 was added to the C10P/PBA mixture, no phosphorous signal could be detected at δ 3 or greater, and two new peaks at δ 0.4 and 0.0 appeared. […]

Rhodococcus hoagii = assay: Activity spectrum MIC; type: cell-based; conditions: PBA 50 μg/mL

Structure (SMILES): O=Cc1ccccc1B(O)O [2-formylphenylboronic acid]
growth inhibitory zone, boron species in combination with B1 (Bacillus subtilis [1]): effective

Structure (SMILES): OB(O)c1cc(C(F)(F)F)cc(C(F)(F)F)c1 [3,5-(bis(trifluoromethyl)phenyl) boronic acid]
growth inhibitory zone, boron species in combination with B1 (Bacillus subtilis [1]): effective

Structure (SMILES): Cc1cc(C)cc(B(O)O)c1 [3,5-dimethylphenylboronic acid]
growth inhibitory zone, boron species in combination with B1 (Bacillus subtilis [1]): effective

Structure (SMILES): OB(O)c1cccc(O)c1 [3-hydroxylphenylboronic acid]
growth inhibitory zone, boron species in combination with B1 (Bacillus subtilis [1]): effective

Structure (SMILES): OB(O)c1cccnc1 [3-pyridylboronic acid]
growth inhibitory zone, boron species in combination with B1 (Bacillus subtilis [1]): effective

Structure (SMILES): CSc1ccc(B(O)O)cc1 [4-(methylthio) phenylboronic acid]
growth inhibitory zone, boron species in combination with B1 (Bacillus subtilis [1]): effective

Structure (SMILES): Nc1ccc(B(O)O)cc1 [4-aminophenylboronic acid]
growth inhibitory zone, boron species in combination with B1 (Bacillus subtilis [1]): effective

Structure (SMILES): N#Cc1ccc(B(O)O)cc1 [4-cyanophenylboronic acid]
growth inhibitory zone, boron species in combination with B1 (Bacillus subtilis [1]): effective

Structure (SMILES): OB(O)c1ccc(F)cc1 [4-fluorophenylboronic acid]
growth inhibitory zone, boron species in combination with B1 (Bacillus subtilis [1]): effective

Structure (SMILES): OB(O)c1ccc(O)cc1 [4-hydroxylphenylboronic acid]
growth inhibitory zone, boron species in combination with B1 (Bacillus subtilis [1]): effective

Structure (SMILES): COC(=O)c1ccc(B(O)O)cc1 [4-methoxycarbonyl phenylboronic acid]
growth inhibitory zone, boron species in combination with B1 (Bacillus subtilis [1]): effective

Structure (SMILES): COc1ccc(B(O)O)cc1 [4-methoxyphenylboronic acid]
growth inhibitory zone, boron species in combination with B1 (Bacillus subtilis [1]): effective

Structure (SMILES): OB(O)c1ccncc1 [4-pyridylboronic acid]
growth inhibitory zone, boron species in combination with B1 (Bacillus subtilis [1]): effective

Structure (SMILES): Cc1ccc(B(O)O)cc1 [4-tolylboronic acid]
growth inhibitory zone, boron species in combination with B1 (Bacillus subtilis [1]): effective

Structure (SMILES): CCCCCCCCCCCCCCCC(=O)N[C@@H](CO)C(=O)N[C@H]1CNC(=O)[C@@H]2CCCN2C(=O)[C@H]([C@@H](C)CC)NC(=O)[C@@H]([C@@H](C)O)NC(=O)CNC(=O)[C@H](CO)NC(=O)CNC(=O)[C@H](CC(=O)O)NC(=O)CNC(=O)[C@H]2CCCCN2C1=O [B1] (Palmitoyl-S[Dap][dPip]GDGSG[d(aThr)]IP; lactam 2-C)
dependence of antibacterial activity on calcium (Bacillus subtilis [2]; LB, PBA 50 μg/mL (0.41 mM), FIG. 4A): completely independent of calcium | antimicrobial activity (Bacillus subtilis [2]; no calcium supplements): none of them were active | response of antimicrobial activity to varying calcium concentration (Bacillus subtilis [2]; fixed PBA 100 μg/mL (0.82 mM)): no change | antimicrobial activity when no calcium was added (Bacillus subtilis [2]; fixed PBA 100 μg/mL (0.82 mM), no calcium added): equally effective | PBA dependence of bacterial growth suppression (Bacillus subtilis [2]): only able to suppress bacterial growth in the presence of PBA | growth inhibition (Staphylococcus species): inhibited the growth | growth inhibition (B. cereus): inhibited the growth | antibacterial activity (Pseudomonas aeruginosa): no activity | susceptibility [3]: similarly susceptible | growth inhibition (E. faecalis): inhibited the growth | susceptibility [4]: similarly susceptible | antibacterial activity (Escherichia coli): no activity | IC50 (HEK293T cells): greater than 128 μg/mL | growth inhibition (Streptococcus species): inhibited the growth | C10P sequestration [5]: sequestered all C10P | growth inhibition (Rhodococcus hoagii): inhibited the growth

Structure (SMILES): CCCCCCCCCCCCCCCC(=O)N[C@@H](CO)C(=O)N[C@H]1CNC(=O)[C@@H]2CCCN2C(=O)[C@H]([C@@H](C)CC)NC(=O)[C@@H]([C@@H](C)O)NC(=O)CNC(=O)[C@H](CCO)NC(=O)CNC(=O)[C@H](CC(=O)O)NC(=O)CNC(=O)[C@H]2CCCCN2C1=O [B3, Ser-Dap-Pip-Gly-Asp-Gly-Hse-Gly-Thr-Ile-Pro] (Palmitoyl-S[Dap][dPip]GDG[hSer]G[d(aThr)]IP; lactam 2-C)
antimicrobial activity (Bacillus subtilis [2]; no calcium supplements): none of them were active | PBA dependence of bacterial growth suppression (Bacillus subtilis [2]): only able to suppress bacterial growth in the presence of PBA

effect of calcium concentration on MIC (Bacillus subtilis [2]; calcium 5 to 0.5 mM, PBA present): unaffected
Structure (SMILES): CCCCCCCCCCCCCCCC(=O)N[C@@H](CCO)C(=O)N[C@H]1CNC(=O)[C@@H]2CCCN2C(=O)[C@H]([C@@H](C)CC)NC(=O)[C@@H]([C@@H](C)O)NC(=O)CNC(=O)[C@H](CO)NC(=O)CNC(=O)[C@H](CC(=O)O)NC(=O)CNC(=O)[C@H]2CCCCN2C1=O [B4] (Palmitoyl-[hSer][Dap][dPip]GDGSG[d(aThr)]IP; lactam 2-C)
antimicrobial activity (Bacillus subtilis [2]; 5 mM calcium): weak antimicrobial activity | antimicrobial activity (Bacillus subtilis [2]; no calcium supplements): none of them were active

Structure (SMILES): OB(O)c1ccccc1 [PBA, phenylboronic acid, reference compound]
growth inhibitory zone, boron species in combination with B1 (Bacillus subtilis [1]): effective | IC50 (HEK293T cells; Homo sapiens, HEK-293T): > 128 µg/mL

MIC (Bacillus subtilis [2]; [Ca2+]=0.5 mM): 16 µg/mL (≈ 12.7 µM) | MIC (Bacillus subtilis [2]; calcium 5 mM): 4 µg/mL (≈ 3.17 µM)
Structure (SMILES): CCCCCCCCCCCCCCCC(=O)N[C@@H](CC(=O)O)C(=O)N[C@H]1CNC(=O)[C@@H]2CCCN2C(=O)[C@H]([C@@H](C)CC)NC(=O)[C@@H]([C@@H](C)O)NC(=O)CNC(=O)[C@H](CC(=O)O)NC(=O)CNC(=O)[C@H](CC(=O)O)NC(=O)CNC(=O)[C@H]2CCCCN2C1=O [S1, reference compound] (Palmitoyl-D[Dap][dPip]GDGDG[d(aThr)]IP; lactam 2-C (inferred))
potency in the presence of PBA (Bacillus subtilis [2]; PBA 100 μg/mL (0.82 mM)): dramatically decreased
